In patent US6391325B1, “Use of nitrogen-containing complexing agents for deodorization and antimicrobial treatment of the skin and textile fibre materials” (Ciba Specialty Chemicals Corporation, priority 1996, dated 2002):

Experiments:
[1] = test system: Corynebacterium xerosis ATCC 373; experiment: Agar diffusion test (caso-agar, stamped-out holes); format: cell-based; conditions: for Inhibitory aureola diameter Cory. xerosis ATTC 373: 10000 ppm, 100 μl per hole in double-distilled water, 37° C. for 2 days, two values per cell
Protocol: (§1) Test method: An agar diffusion test is carried out with the following modifications: Medium: casein-soya flour peptone agar (caso-agar) Test organisms: Corynebacterium xerosis ATCC 373 Corynebacterium xerosis ATCC 7711 Corynebacterium minutissimum ATCC 23358 Procedure: 500 ml of caso-agar are innoculated with 3.5 ml of an overnight culture of the bacteria, diluted 1:100, and caso plates (18 ml) are covered with a layer of about 5 ml of the bacteria-containing agar. […] Each stamped-out hole is filled with in each case 100 μl of a test substance dilution and the plates are incubated at 37° C. for 2 days. Double-distilled water is employed as the solvent for all the substances. In the case of […], the pH is adjusted to 3.3 by addition of 1 N NaOH. Chemically prepared S,S-EDDS is adjusted to the pH of 5.6 by addition of 1 N NaOH. Controls: Double-distilled water

[2] = test system: Corynebacterium xerosis ATCC 7711; experiment: Agar diffusion test (caso-agar, stamped-out holes); format: cell-based; conditions: 10000 ppm, 100 μl per hole in double-distilled water, 37° C. for 2 days; two values per cell
Protocol: as §1

Row | Compound | Inhibitory aureola diameter Cory. xerosis ATTC 373 [1] | bacteriostatic action against Corynebacterium xerosis ([1]; summary in words of Table 1 (both strains)) | Inhibitory aureola diameter Cory. xerosis ATTC 7711 [2]
1 | O=C(O)CN(CCN(CC(=O)O)CC(=O)O)CC(=O)O [EDTA, ethylenediaminetetraacetic acid, reference compound] | 5/5 | pronounced bacteriostatic action | 2/2
2 | O=C(O)C[C@H](NCCN[C@@H](CC(=O)O)C(=O)O)C(=O)O [S,S-EDDS (prepared by fermentation), (S,S)-N,N′-ethylenediaminedisuccinic acid] | 10/10^1 | – | 15/15^1
3 | O=C(O)C[C@H](NCCN[C@@H](CC(=O)O)C(=O)O)C(=O)O [R,R-EDDS, ethylenediaminedisuccinic acid] | 15/15 | – | –
